The values below come from US8648195B2, “Stabilized crystal of 2-ethyl-3,7-dimethyl-6-(4-(trifluoromethoxy)phenoxy)quinoline-4-yl methyl carbonate, process for producing the crystal, and agricultural chemical composition comprising the crystal” (priority 2010, dated 2014).

A short description of data set [1]: Storage test of aqueous suspension formulations (54° C., 2 weeks): particle size and properties. Type of data set: physicochemical. The following applies: conclusion from storage test. Here is the method: The aqueous suspension formulations of Example 2 and Comparative Example 1 were stored at 54° C. for 2 weeks, and a change in quality between before and after the storage was observed. The size of crystals before and after the storage test was measured with a laser diffraction particle size distribution measuring apparatus and under an optical microscope. [Measurement with Laser Diffraction Particle Size Distribution Measuring Apparatus] Apparatus used: Laser diffraction particle size distribution measuring apparatus SALD-2200 manufactured by Shimadzu Corp The floable formulation diluted with water after the storage test was used for the measurement of particle size with the above measuring apparatus. The A crystal form after the storage could not be suspended in water, and, thus, instead of the suspension, before use in test, was exposed to ultrasonic waves until coarse particle nuclei disappeared. [Measurement Under Optical Microscope] Apparatus used: Digital microscope VHX-200 manufactured by Keyence Corp. Images of the water-diluted floable formulations after the storage test were taken with the apparatus (magnification: 1500 times). The major axes of crystals in the images were measured, and the average was calculated. […]

Data set [2] relates to Lepidoptera, Hemiptera, Coleoptera, Acari, Hymenoptera, Orthoptera, Diptera, and Order Thysanoptera. The settings on record: patent documents 5 and 6; cited from earlier work.

As to `CCc1nc2cc(C)c(Oc3ccc(OC(F)(F)F)cc3)cc2c(OC(=O)OC)c1C` [Example 1, 2-ethyl-3,7-dimethyl-6-(4-(trifluoromethoxy)phenoxy)quinoline-4-yl methyl carbonate], the “Physicochemical and storage stability of the crystal form” value in data set [1] was “high storage stability”.

With `CCc1nc2cc(C)c(Oc3ccc(OC(F)(F)F)cc3)cc2c(OC(=O)OC)c1C` [Compound I, 2-Ethyl-3,7-dimethyl-6-(4-(trifluoromethoxy)phenoxy)-quinoline-4-yl methyl carbonate], in data set [2], the Insecticidal activity entry is listed as “high insecticidal activity”.
